What was measured:
[1] = 293.15 K
[2] = wn = mass fraction of the nth substance listed; settings: 293.15 K; for mass density / viscosity: 101.3 kPa, Liquid

O [water]
Settings | surface tension liquid-gas [mN/m]
[1] | 72.75

Settings | viscosity [mPa·s]
[1], 101.3 kPa, Liquid | 1.002

O [water] + CCOCCOCCOCC
[2], w2 = 0
Settings | mass density [kg/m3] | surface tension liquid-gas [mN/m] | viscosity [mPa·s]
– | 997.2 | 72.75 | 1.002

CCOCCOCCOCC [diethylene glycol diethyl ether] + O
[2]
Settings | mass density [kg/m3] | surface tension liquid-gas [mN/m] | viscosity [mPa·s]
w1 = 0.0033 | – | 69.73 | –
w1 = 0.00984 | – | 66.53 | –
w1 = 0.01771 | – | 56.82 | –
w1 = 0.03207 | – | 45.57 | –
w1 = 0.05896 | 996.7 | 36.39 | 1.18
w1 = 0.07683 | 996.9 | – | 1.265
w1 = 0.1038 | 997.1 | – | 1.451
w1 = 0.1227 | 997.2 | – | 1.551
w1 = 0.1425 | 998.2 | – | 1.701
w1 = 0.1611 | 998.5 | 35.71 | 1.839
w1 = 0.1951 | 998.6 | – | 2.149
w1 = 0.2207 | 999.3 | – | 2.414
w1 = 0.2547 | 999.1 | 34.92 | 2.707
w1 = 0.2828 | 999.8 | – | 2.961
w1 = 0.3185 | 999.5 | – | 3.302
w1 = 0.3578 | 999.1 | 34.11 | 3.637
w1 = 0.3773 | 996.6 | – | 3.781
w1 = 0.4231 | 994.6 | – | 4.088
w1 = 0.4474 | 993.1 | 32.3 | 4.218
w1 = 0.5151 | 989 | – | 4.462
w1 = 0.5769 | 981.1 | 30.54 | 4.452
w1 = 0.6029 | 979.1 | – | 4.403
w1 = 0.6385 | 973.1 | 30.21 | 4.27
w1 = 0.6814 | 966.4 | – | 4.033
w1 = 0.7256 | 960.1 | – | 3.741
w1 = 0.7794 | 949.6 | 30.46 | 3.189
w1 = 0.8549 | 940.7 | 30.2 | 2.599
w1 = 0.9195 | 926.2 | – | 1.943
w1 = 0.9401 | 920.7 | 30.01 | 1.75
w1 = 0.9769 | 912.8 | – | 1.467
w1 = 1 | 907.3 | 29.27 | 1.346

CCOCCOCCOCC [diethylene glycol diethyl ether]
Settings | surface tension liquid-gas [mN/m]
[1] | 29.27

[1], 101.3 kPa, Liquid
Settings | mass density [kg/m3] | viscosity [mPa·s]
– | 907.3 | 1.346

— the NIST ThermoML archive (doi:10.1021/je049932z)
